Reference: patent publication US20090325952A1, “PYRAZOLO[3,4-B]PYRIDINE COMPOUNDS, AND THEIR USE AS PDE4 INHIBITORS” (Glaxo Group Limited, priority 2006, published 2009)
Where a name gives a salt, the structure may show the parent alone.

System: TNF-α (TNF-alpha) production in human PBMC (peripheral blood mononuclear cells)
Test: Inhibition of TNF-alpha production in human PBMC assay (MSD technology)
Assay type: cell-based
Conditions: LPS stimulated, measured and/or mean of n measurements; for IC50: Homo sapiens, PBMC, read-out: PBMC pIC50 (MSD assay), inhibition of TNF-α production (converted)
Description: A 96-well plate (96 MicroWell™ Plates Nunclon™Δ-High Flange Design, Fisher Scientific UK, Bishop Meadow Road, Loughborough LE 11 5 RG, Leicestershire, UK) is prepared by initially adding to column 1 ca. 10 mM of test compound dissolved in DMSO. […] The compound is further diluted with DMSO into columns 2 to 9 by 8 successive 3-fold dilutions using the Biomek® FX Laboratory Automation Workstation (Beckman Coulter, Inc., 4300 N. Harbor Boulevard, P.O. Box 3100, Fullerton, Calif. 92834-3100, USA). Column 10 is used as a DMSO negative control (High Signal, 0% response), whilst column 11, which contains 10 mM of the PDE4 inhibitor roflumilast, is used as a positive control (Low Signal, 100% response). About 1 μl (about 1 ul) of compound is transferred to the compound plate using the Biomek® FX.
PBMC cells (peripheral blood mononuclear cells) are prepared from heparinised human blood (using 1% v/v Heparin Sodium 10001 U/ml Endotoxin Free, Leo Laboratories Ltd., Cashel Road, Dublin 12. Ireland, Cat No: PL0043/0149) from normal volunteers using the Accuspin™ System-Histopaque®-1077 essentially (Sigma-Aldrich Company Ltd., The Old Brickyard New Rd, Gillingham, Dorset SP8 4XT, UK). About 20 ml of blood is overlaid onto 15 ml Histopaque® in Accuspin™ tubes. The tube is then centrifuged at about 800 g for ca. 20 minutes. The cells are collected from the interface, washed by centrifugation (ca. 1300 g, ca. 10 minutes) and resuspended in RPMI1640 medium (Low endotoxin RPMI1640 medium, Cat No: 31870-025, Invitrogen Corporation Invitrogen Ltd, 3 Fountain Drive, Inchinnan Business Park, Paisley PA4 9RF, UK) containing 10% foetal calf serum, 1% L-glutamine (Invitrogen Corporation, Cat No: 25030024) and 1% penicillin/streptomycin (Invitrogen Corporation, Cat No: 15140-122). Viable cells are counted by trypan blue staining and diluted to 1×10^6 viable cells/ml. About 50 μl (about 50 ul) of diluted cells and about 75 μl (about 75 ul) of LPS (ca. 1 ng/ml final; Sigma Cat No: L-6386) are added to the compound plate, which is then incubated at 37° C., 5% CO2, for 20 hours.
The supernatant is removed and the concentrations of TNF-α are determined by electrochemiluminescence assay using the Meso Scale Discovery (MSD) technology (Meso Scale Discovery, 9238 Gaither Road, Gaithersburg, Md. 20877, USA). See the “TNF-α (TNF-alpha) MSD Assay” described below for typical details.
For the following Examples, which are compounds of formula (I) or salts thereof, and generally when using the one of the above assays, or a generally similar or generally analogous assay, the measured and/or mean pIC50 values for inhibition of TNF-α (TNF-alpha) production in PBMCs are generally as follows (subject to a possibly-large variability or error):
Using the Biomek FX, 25 μl (25 ul) of MSD Human Serum Cytokine Assay Diluent (Meso Scale Discovery, 9238 Gaither Road, Gaithersburg, Md. 20877) is added to a 96-well High-Bind MSD plate pre-coated with anti-hTNF alpha capture antibody (MA6000) and then incubated for 24 hours at 4° C. to prevent non-specific binding. About 20 μl (ul) of supernatant from the PBMC plate or about 40 μl (ul) of supernatant from the whole blood (WB) plate are then transferred from columns 1-11 to columns 1-11 of the MSD plate using the Biomek FX. About 20 μl (ul) of TNF-α standard (Cat No. 210-TA; R&D Systems Inc., 614 McKinley Place NE, Minneapolis, Minn. 55413, USA) are added to column 12 of the MSD plate to generate a standard calibration curve (about 0 to 30000 pg/ml final).
For the Whole Blood assay, plates are washed after 2 hours shaking with a Skanwasher 300 version B (Skatron Instruments AS. PO Box 8, N-3401 Lier, Norway). About 40 μl (ul) of diluted sulfo-TAG antibody (ca. […] final) is added, the plates are shaken at room temperature for 1 hours, and the plates washed again as above. About 150 μl (ul) of Read Buffer T (2×) is added to the plates, which are then read on a MSD Sector 6000. […]

## CCc1nc2c(cnn2CC)c(NC2CCOCC2)c1CNC(=O)c1ccc(NC(=O)CCCCCCCN(C)CCO)cc1 [Example 1A1, N-{[1,6-Diethyl-4-(tetrahydro-2H-pyran-4-ylamino)-1H-pyrazolo[3,4-b]pyridin-5-yl]methyl}-4-({8-[(2-hydroxyethyl)(methyl)amino]octanoyl}amino)benzamide dihydrochloride]
  IC50: ~0.501 nM

## CCc1nc2c(cnn2CC)c(NC2CCOCC2)c1CNC(=O)c1ccc(NC(=O)CCCCCCCN(C)CCO)cc1 [Example 1B, N-{[1,6-diethyl-4-(tetrahydro-2H-pyran-4-ylamino)-1H-pyrazolo[3,4-b]pyridin-5-yl]methyl}-4-({8-[(2-hydroxyethyl)(methyl)amino]octanoyl}amino)benzamide]
  PBMC pIC50 (MSD assay), inhibition of TNF-α production: about 9.2 (n = 29)

## CCc1nc2c(cnn2CC)c(NC2CCN(C(N)=O)CC2)c1CNC(=O)c1ccc(NC(=O)CCCCCCCN(C)CCO)cc1.O=C(O)C(F)(F)F [Example 9, 4-({1,6-diethyl-5-[({[4-({8-[(2-hydroxyethyl)(methyl)amino]octanoyl}amino)phenyl]carbonyl}amino)methyl]-1H-pyrazolo[3,4-b]pyridin-4-yl}amino)-1-piperidinecarboxamide trifluoroacetate (salt)]
  PBMC pIC50 (MSD assay), inhibition of TNF-α production: about 8.4 (n = 4)

## CCc1nc2c(cnn2CC)c(NC2CCOCC2)c1CNC(=O)c1ccc(CCCCOCCCCN(C)CCO)cc1 [Example 19, formate salt of N-{[1,6-diethyl-4-(tetrahydro-2H-pyran-4-ylamino)-1H-pyrazolo[3,4-b]pyridin-5-yl]methyl}-4-[4-({4-[(2-hydroxyethyl)(methyl)amino]butyl}oxy)butyl]benzamide]
  IC50: ~0.251 nM

## CCc1nc2c(cnn2CC)c(NC2CCN(C(N)=O)CC2)c1CNC(=O)c1ccc(CCCCOCCCCN2CCOCC2)cc1 [Example 23A, 4-({1,6-diethyl-5-[({[4-(4-{[4-(4-morpholinyl)butyl]oxy}butyl)phenyl]carbonyl}amino)methyl]-1H-pyrazolo[3,4-b]pyridin-4-yl}amino)-1-piperidinecarboxamide]
  PBMC pIC50 (MSD assay), inhibition of TNF-α production: about 9.1 (n = 8)

## CCn1ncc2c(NC3CCOCC3)c(CNC(=O)c3ccc(NC(=O)CCCCCCCN(C)CCO)cc3)cnc21 [Example 26, Formate salt of N-{[1-ethyl-4-(tetrahydro-2H-pyran-4-ylamino)-1H-pyrazolo[3,4-b]pyridin-5-yl]methyl}-4-({8-[(2-hydroxyethyl)(methyl)amino]octanoyl}amino)benzamide]
  IC50: ~15.8 nM
